Test results taken from patent US5530110A, “4-ethoxy-5-fluoro-2'-deoxyuridine” (City of Hope, priority 1994, dated 1996).
Where two headings read alike, the source gives them in different places.

How the values were obtained:
cellular DNA = details: cited from earlier work
CCRF-CEM cells = test: Cytostatic activity (growth inhibition) of CCRF-CEM cells in culture; format: cell-based; details: Homo sapiens, 96 h
Description: Cell culture and cytostatic activity (growth inhibition): The human T-cell line CCRF-CEM was obtained from J. S. Holcenberg, Childrens Hospital of Los Angeles. Maintenance of cultures in RPMI 1640 medium and growth inhibition assays were carried out as previously described^24 except that iron-supplemented bovine calf serum was used routinely in place of dialyzed fetal bovine serum and inhibition of cell growth was based on the culture densities after four days without dilution of the cultures. […] Culture densities were also determined after three days to check that the cell growth continued in cultures without cytotoxic agents.
CCRF- CEM cells were a gift from Dr. John Holcenberg and were grown in suspension as previously described.

DNA 5-methylcytosine = details: in words; cited from earlier work
thymidylate synthase = details: via kinase and deamination to FdUMP; in words; cited from earlier work
[1] = Relative partition coefficients between 0.1M phosphate buffer, pH 7.0 and 1-octanol; format: physicochemical; details: for logD: phosphate buffer / 1-octanol
[2] = tested on: human erythrocytes and lymphocytes; details: in words; cited from earlier work
[3] = AZT over dT; cited from earlier work
[4] = tested on: plasma thymidine phosphorylase; details: in words; cited from earlier work
[5] = Hydrolysis of the alkoxy derivatives to FdU in aqueous solution; format: physicochemical; details: for conversion to FdU in aqueous solution / dependence of hydrolysis rate on hydroxide concentration: in words; for dependence of hydrolysis rate on hydroxide concentration: data not shown; for half-life at 150 µM: pH 11, 25°, 1.5×10^-4 M in unbuffered deionized water adjusted with NaOH or HCl, read-out: conversion half life (4→1) (converted)
Description: In aqueous solution, the 4-alkoxy derivatives (4) are converted to FdU (1). […] The reaction is both acid and base catalyzed. At pH 11, the half lives for the conversion are 3.3 and 12.5 hours, respectively for the methoxy (4a) and ethoxy (4b) derivatives.
Hydrolysis of the alkoxy derivatives (4a and 4b) Solutions of 4-methoxy (4a) and 4-ethoxy,5-fluoro, 2'-deoxyuridine (4b) (1.5×10^-4 M) were prepared in unbuffered, deionized water. The pH of the solutions was adjusted with the addition of 1N NaOH or 1N HCl. […] The UV spectrum obtained upon completion of the hydrolysis in both with both compounds 4a and 4b are indistinguishable from FdU^9. […] (data not shown).

[6] = CCRF-CEM growth inhibition, four days, triplicate wells, read-out: EC50
[7] = 0.1M phosphate buffer, pH 7.0 / 1-octanol, read-out: relative partition coefficient (converted)

EC50 (CCRF-CEM cells; [6]) | logD [1, 7] | lipophilicity relative to FdU ([1]; pH 7) | dependence of hydrolysis rate on hydroxide concentration [5] | half-life at 150 µM [5] | Compound | catabolism via plasma thymidine phosphorylase [4] | conversion to FdU in aqueous solution [5] | other results
6.9 nM | -1.55 |  |  |  | Nc1nc(=O)n([C@H]2C[C@H](O)[C@@H](CO)O2)cc1F [FdC (5), 5-Fluoro, 2'-deoxycytidine] |  |  | relation of DNA incorporation to cytotoxicity (cellular DNA): level of FdC incorporation is proportional to cytotoxicity; decrease in DNA 5-methylcytosine levels (DNA 5-methylcytosine): dramatic decreases in DNA 5-methylcytosinelevels; inhibition of thymidylate synthase (thymidylate synthase): inhibition of thymidylate synthase
 |  |  |  |  | O=c1[nH]cc(F)c(=O)[nH]1 [fluorouracil, 5-fluorouracil, reference compound] |  |  | EC50 (CCRF-CEM cells; CCRF-CEM): 5000 nM
 |  |  |  |  | Cc1cn([C@H]2C[C@H](N=[N+]=[N-])[C@@H](CO)O2)c(=O)[nH]c1=O [AZT] |  |  | cell entry [2]: can enter human erythrocytes and lymphocytes by nonfacilitated diffusion; increased lipophilicity over dT [3]: 20 fold
8.9 nM |  |  |  |  | O=c1[nH]c(=O)n([C@H]2C[C@H](O)[C@@H](CO)O2)cc1F [FdU (1), reference compound] | cleavage via plasma thymidine phosphorylase |  | logD ([1]; pH 7): -1.28
1800 nM | -0.108 | 14.7 fold | proportional to [^- OH] | 12.5 h | CCOc1nc(=O)n([C@H]2C[C@H](O)[C@@H](CO)O2)cc1F [4-ethoxyFdU (4b), 4-Ethoxy, 5-fluoro, 2'-deoxyuridine] |  | converted quantitatively to FdU in aqueous solution | half-life ([5]; water, pH 11, aqueous solution, read-out: half life for the conversion to FdU (converted)): 12.5 h
1800 nM | -0.62 | 4.5 fold | proportional to [^- OH] | 2.2 h | COc1nc(=O)n([C@H]2C[C@H](O)[C@@H](CO)O2)cc1F [4-methoxyFdU (4a), 4-Methoxy, 5-fluoro, 2'-deoxyuridine] | neither deoxycytidine derivatives^25 nor 4-methoxy-5-fluoro-2'deoxyuridine^26 are catabolized via this pathway | converted quantitatively to FdU in aqueous solution | 
